Structures can show the parent of a compound that is named as a salt. Where two headings read alike, the source gives them in different places. Where a SMILES comes first, the peptide text is derived from it. The star is where a group is joined. PhAc = O=C(Cc1ccccc1)*
Assays:
Fn1419 [1] = target: T1, Fn1419 (Fusobacterium nucleatum subsp. nucleatum, UniProt Q8RDT4); format: biochemical
T1 construct: Fn1419 (GeneBank: AAL95612.1, residues 1–395); His-tag (N); made in house; host or cells: E. coli BL21 (DE3)
Procedure: MGL^Cys activity of Fn1419 was measured as previously reported. Fn1419 (5.75 nM) in assay buffer (40 mM potassium phosphate, pH 7.6, and 10 μM PLP) was mixed with various concentrations of L-cysteine (25, 50, 100, 200, 400, 800, or 1000 μM) and incubated for 15 min at 37 °C. H2S, the reaction product, was then detected based on methylene blue formation. Specifically, 100 μL of solution A (the enzyme reaction solution), 20 μL of solution B (20 mM N′,N′-dimethyl-p-phenylenediamine dihydrochloride and 7.2 M HCl), and 20 μL of solution C (30 mM FeCl3 and 1.2 M HCl) were mixed, and the mixture incubated for 30 min at room temperature.
(§1) Then, 500 μM L-cysteine was added, and the reaction was allowed to proceed for 5 min at 37 °C. The amount of produced H2S was detected indirectly, based on the formation of methylene blue. The reaction mixture consisted of solution A (100 μL), solution B (20 μL), and solution C (20 μL) (the solution composition is described at the enzyme assays) and was incubated for 30 min at 20 °C. The amount of generated methylene blue was detected at 670 nm, using a SpectraMax 190 Microplate Reader (Molecular Devices, San Jose, CA, USA) at 25 °C.

Mannheimia haemolytica = Mannheimia haemolytica strains; cited from earlier work
Fn1220 = assay: Inhibitory effect of gallic acid on H2S production of Fn1220; format: biochemical, Fusobacterium nucleatum; conditions: 500 μM gallic acid, 5.75 nM enzyme
Procedure: as §1

E. coli = E. coli strains; cited from earlier work
Fn1419 [2] = target: T1, Fn1419; assay: IC50 determination on MGL^Cys activity of Fn1419; format: biochemical
Procedure: as §1
The concentration of the enzyme was 5.75 nM and the concentration of the six above-mentioned compounds was 500 μM. IC50 values were eventually calculated from non-linear regression curves fitted.

Pasteurella multocida = Pasteurella multocida strains; cited from earlier work
Fn1055 = assay: Inhibitory effect of gallic acid on H2S production of Fn1055; format: biochemical, Fusobacterium nucleatum; conditions: 500 μM gallic acid, 5.75 nM enzyme
Procedure: as §1

[3] = test system: antibiotic-resistant S. aureus; conditions: antibiotic-resistant S. aureus strains; cited from earlier work
[4] = not told; cited from earlier work
[5] = in vivo; cited from earlier work
[6] = 100 μM compound, 5.75 nM Fn1419, 500 μM L-cysteine
[7] = 5.75 nM enzyme, preincubation 20 min at 20 °C, read-out: IC50 (Fn1419 MGL^Cys activity)

T1 sequence (Q8RDT4 whole entry, the tested form may be a part): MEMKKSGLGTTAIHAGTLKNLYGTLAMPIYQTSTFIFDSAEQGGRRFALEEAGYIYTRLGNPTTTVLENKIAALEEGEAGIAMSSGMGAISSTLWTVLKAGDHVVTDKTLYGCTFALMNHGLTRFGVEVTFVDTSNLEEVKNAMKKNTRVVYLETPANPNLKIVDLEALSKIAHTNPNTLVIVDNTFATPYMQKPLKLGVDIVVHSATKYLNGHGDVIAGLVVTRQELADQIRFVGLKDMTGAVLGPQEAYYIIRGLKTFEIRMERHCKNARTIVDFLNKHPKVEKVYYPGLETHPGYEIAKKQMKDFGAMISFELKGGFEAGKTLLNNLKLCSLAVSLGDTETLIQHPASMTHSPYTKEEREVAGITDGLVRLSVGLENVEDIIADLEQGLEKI

Compound | effect on MGL^Cys enzyme activity of Fn1419 (in words) (Fn1419 [1]; [6]) | product increase rate (MGL^Cys activity of Fn1419 enhanced) (Fn1419 [1]; [6]) | other results
N[C@@H](CCC(=O)O)C(=O)O [L-glutamate] | did not significantly affect enzyme activity | – | –
COc1cc2c(cc1OC)[C@@H]1Cc3ccc(OC)c(OC)c3CN1CC2 [L-tetrahydropal matrine] | – | 71.7% | –
O=C(O)C1(O)C[C@@H](O)C(O)[C@H](O)C1 (stereo partly drawn) [D-quinic acid] | – | 35.1% | –
O=c1c(O)c(-c2ccc(O)cc2)oc2cc(O)cc(O)c12 [kaempferol] | – | – | product reduction rate (MGL^Cys activity of Fn1419) (Fn1419 [1]; [6]): 40.4%
O.O.O.O.O.OC[C@H]1O[C@H](OC[C@H]2O[C@H](O[C@]3(CO)O[C@H](CO)[C@@H](O)[C@@H]3O)[C@H](O)[C@@H](O)[C@@H]2O)[C@H](O)[C@@H](O)[C@H]1O [D-raffinose pentahydrate] | – | 72.5% | –
OC[C@@H](O)[C@@H](O)CO [erythritol] | – | 16.4% | –
O=C1CCC[C@@H]2[C@H]3CCCN4CCC[C@@H](CN12)[C@@H]34 [matrine] | – | 4.9% | –
Cl.NCC(CC(=O)O)c1ccccc1 (stereo not shown) [phenibut HCl] | – | 61.8% | –
CCCCCCCC/C=C\CCCCCCCC(N)=O [oleamide] | – | 24.6% | –
O=C(O)c1cc(O)c(O)c(O)c1 [gallic acid] | – | – | growth inhibition (in words) (Mannheimia haemolytica): strongly inhibits the growth; inhibition of Fn1220 (in words) (Fn1220): did not inhibit; growth inhibition (in words) (E. coli): strongly inhibits the growth; product reduction rate (MGL^Cys activity of Fn1419) (Fn1419 [1]; [6]): 84.8%; IC50 (Fn1419 [2]): 121 µM; growth inhibition (in words) (Pasteurella multocida): strongly inhibits the growth; inhibition of Fn1055 (in words) (Fn1055): did not inhibit; growth inhibition (in words) [3]: strongly inhibits the growth
O=c1cc(-c2ccc(O)cc2)oc2cc(O)cc(O)c12 [apigenin] | not significantly affected | – | –
N[C@@H](Cc1c[nH]c2ccc(O)cc12)C(=O)O [5-hydroxyl tryptophan] | – | 53.0% | –
Cc1ncc(CO)c(CO)c1O [pyridoxine-HCl] | did not significantly affect enzyme activity | – | –
O=C(O)c1cccnc1 [niacin] | – | – | effect on MGL^Cys enzyme activity of Fn1419 (in words) (Fn1419 [1]): did not significantly affect enzyme activity
CCOC(=O)CNC(=O)[C@@H]1CCCN1C(=O)Cc1ccccc1 [noopept] (PhAc-Pro-Gly-OEt) | – | 21.8% | –
C[N+](C)(C)CC(=O)O [betaine-HCl] | – | 24% | –
NCCCC(=O)O [GABA] | – | 9.9% | –
Nc1ncnc2c1ncn2[C@@H]1O[C@H](CO)C[C@H]1O [cordycepin] | did not significantly affect enzyme activity | – | –
O=C(/C=C/c1ccc(O)c(O)c1)O[C@@H]1C[C@](O)(C(=O)O)C[C@@H](O)[C@H]1O [chlorogenic acid] | did not significantly affect enzyme activity | – | –
O=C1c2c(O)cc(O)cc2O[C@H](c2cc(O)c(O)c(O)c2)[C@H]1O [dihydromyricetin] | – | – | product reduction rate (MGL^Cys activity of Fn1419) (Fn1419 [1]; [6]): 89.5%; IC50 (Fn1419 [2]; [7]): 23 µM; permeability [4]: low; bioavailability [5]: poor
CN(C)CCc1ccc(O)cc1.Cl [hordenine HCl] | – | 32.1% | –
OC[C@@H](O)[C@H](O)[C@@H](O)CO [xylitol] | did not significantly affect enzyme activity | – | –

Compound | effect on MGL^Cys enzyme activity of Fn1419 (in words) (Fn1419 [1]; [6]) | product increase rate (MGL^Cys activity of Fn1419 enhanced) (Fn1419 [1]; [6]) | other results
NC(=O)CN1CC(c2ccccc2)CC1=O (stereo not shown) [phenylpiracetam] | did not significantly affect enzyme activity | – | –
C/C=C/C=C/C(=O)[O-].[K+] [potassium sorbate] | – | – | product reduction rate (MGL^Cys activity of Fn1419) (Fn1419 [1]): 5.3%
COc1cc(/C=C/C(=O)CC(=O)/C=C/c2ccc(O)c(OC)c2)ccc1O [curcumin] | – | – | product reduction rate (MGL^Cys activity of Fn1419) (Fn1419 [1]; [6]): 53.9%
C[N+](C)(C)CCOP(=O)([O-])OP(=O)([O-])OC[C@H]1O[C@@H](n2ccc(N)nc2=O)[C@H](O)[C@@H]1O.[Na+] [citicoline sodium] | did not significantly affect enzyme activity | – | –
O[C@H]1[C@H](O)[C@@H](O)[C@H](O)[C@@H](O)[C@H]1O [inositol] | did not significantly affect enzyme activity | – | –
C[C@@H]1O[C@@H](OC[C@H]2O[C@@H](Oc3c(-c4ccc(O)c(O)c4)oc4cc(O)cc(O)c4c3=O)[C@H](O)[C@@H](O)[C@@H]2O)[C@H](O)[C@H](O)[C@H]1O [rutin] | – | – | product reduction rate (MGL^Cys activity of Fn1419) (Fn1419 [1]; [6]): 18.2%
CC(=O)O[C@H](CC(=O)O)C[N+](C)(C)C.[Cl-] [acetyl L-carnitine HCl] | not significantly affected | – | –
Oc1cccc(O)c1O [pyrogallic acid] | – | – | product reduction rate (MGL^Cys activity of Fn1419) (Fn1419 [1]; [6]): 89.8%; IC50 (Fn1419 [2]): 57 µM
O=C(O)CCCCC1CCSS1 (stereo not drawn) [α-lipoic acid] | not significantly affected | – | –
O=C(O)/C=C/c1ccc(O)cc1 [p-coumaric, p-coumaric acid] | not significantly affected | – | –
COC(=O)c1cc(O)c(O)c(O)c1 [methyl gallate] | – | – | product reduction rate (MGL^Cys activity of Fn1419) (Fn1419 [1]; [6]): 81.5%
O=C1O[C@H]([C@@H](O)CO)C(O)=C1O [vitamin C] | did not significantly affect enzyme activity | – | –
CN(CC(=O)O)C(=N)N.O [creatine monohydrate] | – | – | product reduction rate (MGL^Cys activity of Fn1419) (Fn1419 [1]; [6]): 11.2%
CNCC(O)c1ccc(O)cc1 (stereo not shown) [synephrine] | – | – | product reduction rate (MGL^Cys activity of Fn1419) (Fn1419 [1]; [6]): 32.4%
COc1cc(C(=O)O)cc(OC)c1OC [gallic acid trimethyl ether] | did not affect | – | –
OCc1c[nH]c2ccccc12 [indole-3-carbinol] | not significantly affected | – | –
CCOC(=O)c1cc(O)c(O)c(O)c1 [ethyl gallate] | – | – | product reduction rate (MGL^Cys activity of Fn1419) (Fn1419 [1]; [6]): 81.9%; IC50 (Fn1419 [2]; [7]): 517 µM
C[N+](C)(C)C[C@H](O)CC(=O)[O-] [L-carnitine] | did not significantly affect enzyme activity | – | –
C[N+](C)(C)CCO.O=C([O-])C(O)C(O)C(=O)O (stereo not shown) [choline bitartrate] | – | – | product increase rate (MGL^Cys activity of Fn1419 enhanced) (Fn1419 [1]): 13.3%
chondroitin sulfate | – | 5.8% | –
CC(=O)N[C@@H](CS)C(=O)O [N-acetyl-cysteine] | – | – | product reduction rate (MGL^Cys activity of Fn1419) (Fn1419 [1]; [6]): 12%

From paper PMC9865163, “Structural Basis of the Inhibition of L-Methionine γ-Lyase from Fusobacterium nucleatum” (International Journal of Molecular Sciences, 2023)
